Assay results reported in patent US20060037085A1, “Animal model for fetal alcohol syndrome and methods of treatment” (priority 2004, published 2006).
Where “and” joins values, the source holds several entries; their conditions need not be identical. Equal entries are not always repeated. Where two headings read alike, the source gives them in different places. Marks after values point to notes of the source that are not given here.

Experiments:
[1] = test system: Xenopus laevis embryos; conditions: for % body length of control / % width between eyes of control / N (normal) tadpoles / def (deformed) tadpoles: Xenopus laevis
Procedure: Embryo collection and experimental conditions for Xenopus model. […] In each experiment, embryos at the 2-4 cell stage were collected from the dejellied embryos. […] Each group was then incubated in a plastic petri dish containing 10 ml of 30% MMR, with or without ethanol for 12 hours. Embryos were allowed to develop for approximately 48 hours at room temperature (22° C.), until the control group reached tadpole stage (stage 45). The conditions used for producing eye defects (Peng et al, 2004), delayed gut development (Peng), microencephaly (Peng et al), and growth retardation (Peng) are shown in detail in the attached references.
(§1) Morphological measurements of microcephaly and growth retardation.
In a specific embodiment, embryos are exposed to at least about 0.4%, 0.5%, 0.6%, 0.7%, 0.8%, 0.9% or 1% alcohol.
Embryos were exposed to 0.6% ethanol at stage 9, 11, 13, 16, 18, 20, 23, 25 and 40 and were grown until the control “no ethanol” group reached tadpole stage. The morphology of the tadpoles was then examined (Table 2).
To determine the minimum duration required to produce fetal deformations, embryos at stage 13 were exposed to 0.6% of alcohol for 1, 2, 4, 6, 12, 24, 36 or 48 hours.

[2] = test system: Xenopus laevis embryos
Procedure: as §1
Vitamin C treatment. Embryos at stage 13 (initial neural plate stage) were collected and divided into groups, each containing 15-20 embryos and incubated in a plastic petri dish containing MMR medium as stated above. Vitamin C, having a concentration of 100 μM, was added either concomitantly, 2 hours before, or 2 hours after the initiation of a 12-hour alcohol exposure. The tadpoles were fixed and measurements were made as stated above.

[3] = test system: Xenopus laevis tadpole brain; assay: Histological analysis of brain injury (coronal brain sections of tadpoles); conditions: tadpoles treated with alcohol
Source text: Histological analysis of brain injury. Embryos were fixed in 2% paraformaldehyde, dehydrated, embedded in paraffin. The embryos were sectioned coronally through the head and stained with hematoxylin and eosin.
The EF-1α transcript was detected as an internal control for equal RNA load.

[4] = test system: alcohol-induced ROS production; assay: ROS measurement (hydrogen peroxide level in embryos); assay type: in vivo, Xenopus laevis; conditions: 0.6% alcohol, stage 13 to 22, harvested at stage 22
Procedure: (A) Embryos were pretreated with or without vitamin C two hours before alcohol treatment (0.6%, 12 h, from stage 13 to 22). The embryos were harvested at stage 22 and the hydrogen peroxide level measured by the colorimetric quantitation of hydrogen peroxide method (total hydroperoxides), according to the protocols provided by the manufacturer (BIOXYTECH H202-560 kit, OXIS International, Inc., USA); (B) The NF-κB mediated transcriptional activity was measured using NF-κB luciferase reporter plasmid (pLuc-NF-κB) containing IL-6 promoter region with four repeats of NF-κB binding sites.
ROS measurement. […] At the end of the experiment, embryos were harvested and total ROS content was determined by the calorimetric quantitation of hydrogen peroxide method (total hydroperoxides), following protocols provided by the manufacturer (BIOXYTECH H202-560 kit, OXIS International, Inc. USA).

[5] = test system: NF-κB; assay: NF-κB reporter assay (pLuc-NF-κB) in whole embryos; assay type: in vivo, Xenopus laevis; conditions: 0.6% ethanol, recorded at stage 22
Procedure: NF-κB reporter assay. NF-κB luciferase reporter plasmid (pLuc-NF-κB) containing IL-6 promoter region with four repeats of NF-κB binding sites was used to measure NF-κB-mediated transcriptional activity (Li, 1997). Embryos at the two-cell stage were injected with pLuc-NF-κB, treated as indicated in the text, harvested, and lysed at stage 22. Protein concentration was determined. The luciferase activities were measured and calculated as relative luciferase activity per mg of protein.
In this embodiment, NF-κB activity was measured in the whole embryo by the reporter construct pLuc-NF-κB, which was injected into embryos at 2-cell stage.

[6] = test system: NCAM; conditions: animal caps until stage 22
Source text: (§2) RT-PCR Animal caps were dissected from embryos at stage 8.5 and cultured in 67% Leibovitz's L-15 medium, pH 7.5 in the presence or absence of varied concentration of alcohol until stage 22. Total RNA was extracted from cultured animal caps with Trizol reagent (Invitrogen). Primer sets and PCR conditions for NCAM and Pax6 have been described in our previous reports (Peng, Neurobiol. Dis., 2004; Peng, J. Mol. Biol., 2004). PCR products were subject to electrophoresis on TBE gel and visualized by ethidium bromide staining.
(§3) Animal cap explant assay. […] Total RNA was extracted from animal caps or whole embryos using TRIZOL reagent (Invitrogen). The total RNA was reverse transcribed using the Superscript system (Invitrogen), and the first strand cDNA of the target gene amplified by PCR.
(§4) The Xenopus animal cap is composed of pluripotent cells that can be induced to form neural, mesodermal, or epidermal tissue, and is a useful tissue to assess the activity of various factors on neural development. Animal caps were treated with varied concentrations of alcohol as indicated.

[7] = test system: Pax6; conditions: animal caps until stage 22
Source text: as §2, §3, §4

[8] = test system: Sox17, Pax6 and VegT; assay: Animal cap explant assay, RT-PCR of gut developmental genes; assay type: cell-based, Xenopus laevis; conditions: alcohol
Source text: as §3

[9] = test system: Xenopus laevis embryos; remark: listed apart in the source
Procedure: Morphological measurements of microcephaly and growth retardation. The tadpoles were then fixed in 2% paraformaldehyde in 30% MMR, and their morphologies examined by light microscopy and photographs were taken at a fixed magnification for body length and head width measurements. The following criteria were recorded: (1) the number of normal/deformed/dead embryos; (2) length of the body measured between the tip of the jaw and the tip of the tail, and (3) width between the eyes measured at the widest level of that of the tadpoles.
In each experiment, embryos at 2-cell stage were collected and microinjected with the expression plasmid for either catalase (pCMS-CAT), xPax6 (pCS2+xPax6) or xSox2 (pCS2+xSox2) into each of the two blastomeres. After reaching stage 13, the embryos were divided into groups, each consisting of 20 embryos, which were then incubated in 10 ml of 30% Modified Marc's Ringer (MMR) for 12 hours until stage 22 in the presence or absence of varied concentrations of alcohol as indicated. As alcohol is volatile, the experimental media were replaced with fresh media every 4 hours during the course of alcohol treatment to minimize fluctuations in the alcohol concentration. At stage 22, embryos were transferred to 10 ml of 30% MMR without alcohol and allowed to grow until the control group reached the tadpole stage (stage 40 or 45). The tadpoles were then fixed and examined. Each experiment was repeated at least once with reproducible results.
The injected embryos were allowed to grow to stage 40, and their head size and body length were then compared to that of the control embryos injected with mock plasmid pCS2+ and without alcohol treatment. […] In a separate experiment, 100 pg pCS2+xSox2 or pCS2+ plasmid was injected into animal pole at two-cell stage embryos (n=50) and treated these embryos in 0.6% alcohol under the same conditions as described for Pax6.
As H2O2 is the major ROS produced by fetal alcohol exposure (Ozer et al., 2000), whether eliminating alcohol-induced H2O2 production can prevent microcephaly was examined by the protective effect of catalase. Human catalase was overexpressed in Xenopus embryos by microinjecting the two-cell stage embryos with 100 pg of catalase expression plasmid pCMS-CAT, and then treating them with or without 0.6% alcohol from stage 13 to 22.

[10] = pCMS-EGFP vector-injected embryos, 0.6% alcohol stage 13 to 22

## CCO [Ethanol, ethanol]
[1]; 0.3% ethanol from stage 11 until control reached stage 45, 15 embryos per group
  dead: 2
[1]; 0.4% ethanol from stage 11 until control reached stage 45, 15 embryos per group
  dead: 1
[1]; 0.5% ethanol from stage 11 until control reached stage 45, 15 embryos per group
  dead: 2
[1]; 0.6% alcohol, 12-hour exposure, stage 13-22
  mortality, head and body sizes vs control: increased mortality and marked reduction in head and body sizes
[1]; 0.6% ethanol from stage 11 until control reached stage 45, 15 embryos per group
  dead: 1
[1]; 0.6% ethanol, initial exposure at Stage 11, until control reached tadpole stage
  dead: 3
[1]; 0.6% ethanol, initial exposure at Stage 13, until control reached tadpole stage
  dead: 2
[1]; 0.6% ethanol, initial exposure at Stage 16, until control reached tadpole stage
  dead: 1
[1]; 0.6% ethanol, initial exposure at Stage 18, until control reached tadpole stage
  dead: 1
[1]; 0.6% ethanol, initial exposure at Stage 20, until control reached tadpole stage
  dead: 2
[1]; 0.6% ethanol, initial exposure at Stage 23, until control reached tadpole stage
  dead: 1
[1]; 1.0% ethanol from stage 11 until control reached stage 45, 15 embryos per group
  dead: 3
[1]; 1.5% ethanol from stage 11 until control reached stage 45, 15 embryos per group
  dead: 4
[1]; 2.0% ethanol from stage 11 until control reached stage 45, 15 embryos per group
  dead: 6
[1]; in vivo, 0.3 %
  % body length of control: 95 ± 54%
  % width between eyes of control: 84 ± 15%
  N (normal) tadpoles: 11
  def (deformed) tadpoles: 3
[1]; in vivo, 0.4 %
  % body length of control: 90 ± 41%
  % width between eyes of control: 81 ± 11 %
  N (normal) tadpoles: 10
  def (deformed) tadpoles: 4
[1]; in vivo, 0.5 %
  % body length of control: 85 ± 57 %
  % width between eyes of control: 75 ± 09 %
  N (normal) tadpoles: 7
  def (deformed) tadpoles: 6
[1]; in vivo, 0.6 %
  % body length of control: 74 ± 34 %
  % width between eyes of control: 70 ± 18 %
  N (normal) tadpoles: 5
  def (deformed) tadpoles: 9
[1]; in vivo, 1 %
  % body length of control: 70 ± 39 %
  % width between eyes of control: 69 ± 21 %
  N (normal) tadpoles: 2
  def (deformed) tadpoles: 10
[1]; in vivo, 1.5 %
  % body length of control: 67 ± 51 %
  % width between eyes of control: 67 ± 17 %
  N (normal) tadpoles: 1
  def (deformed) tadpoles: 10
[1]; in vivo, 2 %
  % body length of control: 65 ± 58 %
  % width between eyes of control: 67 ± 23 %
  N (normal) tadpoles: 0
  def (deformed) tadpoles: 9
[1]; in vivo
  effect on viability and morphology of the tadpoles: no significant effect in either the viability or the morphology of the tadpoles
  teratogenic effect: resistant to the teratogenic effect of alcohol
[1]; stage 40 tadpoles exposed to 0.6% alcohol
  mortality rate: 80%
[2]; 0.6% EtOH for 12 hours from stage 13, 15 embryos
  dead: 2
[2]; Xenopus laevis, in vivo, 12 h
  Alive: 13
  Body length: 9.25 ± 010^b mm
  Eye distance: 1.63 ± 005^b mm
[3]
  size of the forebrain area vs control: reduction in size of the forebrain area
[4]; listed as alcohol
  hydrogen peroxide level in the embryos: significantly augmented
[4]; listed as ethanol
  hydrogen peroxide level in the embryos: significantly increased
[5]
  NF-κB activity in the embryo (luciferase reporter): increased
[6]; 0.1% alcohol
  reduction of NCAM expression: 15%
[6]; 0.2% alcohol
  reduction of NCAM expression: 25%
[6]; 0.3% alcohol
  reduction of NCAM expression: 50%
[6]; 0.4% alcohol
  reduction of NCAM expression: 70%
[7]; 0.1% alcohol
  suppression of Pax6 expression: 25%
[7]; 0.2% alcohol
  suppression of Pax6 expression: 50%
[7]; 0.3% (65 mM) alcohol
  suppression of Pax6 expression: 90%
[8]
  expression of Sox17, Pax6 and VegT: suppressed the expression
[9]; Xenopus laevis, in vivo, 12 h
  alive (Total/alive): 40/32
[9]; [10]
  Body length (% of control): 84 % of control and 83.7 ± 10.1^a % of control
  Distance between eyes (% of control): 81 % of control and 81.3 ± 14^a % of control
[9]; pCS2+ (mock plasmid) injected group, 0.6% alcohol
  frequency of noted microcephaly and growth retardation: 52%
